From patent US5736568A, “2-(aminoalkoxy) phenylalkylamines with antiinflammatory activity” (Knoll Aktiengesellschaft, priority 1994, dated 1998) come the findings set out here.

The test system of assay [1] is carrageenan-induced paw oedema. The experiment in a line: Test B: Carrageenan-induced rat paw oedema test. Conditions: inhibition of paw oedema, 100 mg/kg oral, 3 h after carrageenan. In kind it is in vivo. The procedure: Test B was carried out in the following way:
Carrageenan-induced rat paw oedema test
Female rats, weight range 125-150 g were fasted overnight. One of the hind legs of each animal was marked with a line at the connection between the cuboid/navicular and calcaneus/talus bones. Groups of six rats were orally dosed at 10 ml/kg, in random order, with a given dose of the test compound given as a solution or suspension in 10% (w/v) aqueous acacia solution.
One hour after dosing, 0.1 ml of 1% (w/v) sterile carrageenan λ in normal saline was injected deeply into the plantar surface of the marked hind foot of each rat. The volume of the foot (up to the marked line) was measured immediately after injection using duplicate water displacement readings. Three hours after injection the foot volume was measured again and the percentage increase in foot volume relative to the initial reading was calculated.
The increase in foot volume (i.e. the degree of oedema) in drug treated animals when compared with that in the drug untreated control gave the degree of inhibition of paw oedema by the drug.
Compounds were considered to be active in this test if they produced a statistically significant (typically 20% or greater) inhibition of paw oedema in at least two out of three tests after oral dosing at 100 mg/kg. Statistical significance was assessed using the Student's t test for single dose studies and Dunnett's test for multiple dose studies. More advantageous compounds were active in both Tests A and B,
In general terms: In the carrageenan paw model, swelling and tenderness develop within hours.

The subject of assay [2] is arachidonic acid release from zymosan stimulated macrophages. Nature of the assay: Test A: Inhibition of Arachidonic Acid Release from Zymosan Stimulated Macrophages. Conditions: Mus musculus, Macrophage; peritoneal macrophages labelled with [3H]-arachidonic acid, zymosan stimulus, 5 h; tested at 100, 50, 20, 10, 5 and 1 μM. The format is cell-based, mice (female MF1). As for the experimental part:
Test A was carried out in the following way:
Inhibition of Arachidonic Acid Release from Zymosan Stimulated Macrophages
Female MF1 mice (weighing 20 to 25 g) were killed using a rising concentration of CO2. The mice were laid on their backs and the abdomens wiped with 70% alcohol. The skin was pulled back, exposing the peritoneal wall. Medium A (5 ml) (see below) was injected into the peritoneal cavity of each mouse followed by approximately 1 ml of air using a 20 ml syringe and a 21 G×40 mm needle in order to form a suspension of macrophage cells. The medium and cells were then removed using a 19 G×40 mm needle. The resulting suspension was returned to a sterile beaker kept on ice. The extracts from all the mice were pooled and this pooled cell suspension was counted using a Coulter counter and adjusted to a final cell count of 1-1.3×10^6 cells/ml prior to labelling with [^3 H]-arachidonic acid. Typically five mice provided sufficient cells for each multiwell plate.
Sufficient [^3 H]-arachidonic acid in ethanol to give a final concentration of 1.6 μCi/ml (equivalent to 40 μCi/plate) was blown to dryness under nitrogen. The arachidonic acid was then resuspended in 1 or 2 ml of the cell suspension which was then mixed with the remainder of the cell suspension in a centrifuge bottle.
The following day, non-adherent cells were removed by washing 3 times with sterile phosphate buffered saline (PBS). The adherent peritoneal macrophages were then cultured for a further 24 hours in the presence or absence of drugs, in medium B (see below) at 37° in a 5% CO2 atmosphere in order to measure the effects of drugs on the spontaneous release of arachidonic acid in the absence of stimulus. After this incubation, supernatants were removed to give medium 1 and stored in sealed multi-well plates at 4° C. prior to scintillation counting. […] The supernatants were replaced by fresh medium C containing fresh drug and a stimulus. Three drugs were tested at six concentrations (100, 50, 20, 10, 5 and 1 μM) in replicates of four on each plate. The other wells contained controls consisting of a positive control (e.g. dexamethasone), medium (B) only and medium C only.
Incubation was then continued for a further 5 hours, whereupon the supernatants were collected to give medium 2 and the adherent cells washed with PBS. The cells were then lysed with 100 μl of 0.1% TRITON® X100 in a 0.1% solution of bovine serum albumin in 0.9% saline and mechanically disrupted to give cell lysates. These supernatants (medium 2) and cell lysates (Cells) were also stored in sealed multi-well plates at 4° C. prior to scintillation counting. 200 μl aliquots of media, or 100 μl aliquots of cells were counted using 2 ml of OPTIPHASE "HIGH SAFE" (Trademark of LKB) as scintillant.
The percentage of arachidonic acid released was calculated using the mean values for each group of 4 wells in the following equation. [formula]
The percentage inhibition of arachidonic acid release caused by a drug may then be calculated using the following equation. [formula]
Medium A (for peritoneal lavage)
This mixture was transferred to sterile flask and made up to 400 ml with sterile water.
Medium B (for cell culture)
This mixture was transferred to a sterile beaker and made up to 650 ml with sterile water.
Medium C=medium B+stimulant (zymosan)
The zymosan stimulant was prepared as follows:--zymosan (200 mg) (supplied by Sigma) was added to PBS (20 ml). The mixture was boiled for 30 minutes and the volume restored to 20 ml with water. The zymosan was harvested by centrifugation at 500×g for 5 minutes, washed twice by resuspension in PBS (10 ml) and centrifugation. After the final separation, the zymosan was resuspended in 20 ml PBS and stored as 1 ml aliquots at -20° C.

The subject of assay [3] is carrageenan-induced pleurisy. The experiment in a line: Test C: Carrageenan-induced pleurisy in rats. In kind it is in vivo, rat. Conditions: 24 h and 48 h, leukocytes harvested at 72 h; for activity in Test C at 30 mg/kg: 30 mg/kg p.o. at challenge; for activity in Test C at 10 mg/kg or less: 10 mg/kg or less p.o. at challenge. As for the experimental part:
The most advantageous compounds of formula I were active in Test A and also in the following test. Carrageenan-induced pleurisy in rats was carried out as described by Ackerman et al. J. Pharmacol. Exp. Therap. 1980, 215, 588-595. Migrating leukocytes were harvested by lavage of the thoracic cavity 72 h after injection of 0.3 ml 1% λ-carrageenan in sterile isotonic saline. Test compounds were administered p.o. at the time of challenge and 24 h and 48 h thereafter.

For the molecule `CN(C)Cc1ccc(Cl)cc1OCCN(C)Cc1ccccc1` [Example 6, 2-[2-(N-Benzyl-N-methylamino)ethoxy]-4-chloro-N,N-dimethylbenzylamine], in assay [1], the inhibition (commonly how much of the control response was suppressed) at 100 mg/kg turned out to be 18%. The IC50 (commonly the concentration at which inhibition is half-maximal) in assay [2] was determined as 15 µM. The “activity in Test C at 30 mg/kg” value in assay [3] is given as “active”.
For `CN(C)Cc1c(OCCN(C)Cc2ccccc2)ccc2ccccc12` [Example 8, N-Benzyl-2-[1-(dimethylaminomethyl)naphth-2-yloxy]-N-methylethylamine] the same measures were 23%, 13 µM and “active”.
On the same counts, the results for `CN(CCOc1ccc(Cl)cc1CN1CCCCC1)Cc1ccccc1` [Example 11, N-Benzyl-2-[4-chloro-2-(piperidinomethyl)phenoxy]-N-methylethylamine] are 47%, 10 µM and “active”.
Molecule `CN(C)Cc1cc(Cl)ccc1OCCCN(C)Cc1ccccc1` [Example 12, 2-[3-(N-Benzyl-N-methylamino)propoxy]-5-chloro-N,N-dimethylbenzylamine] showed an inhibition at 100 mg/kg in assay [1] of 68%. The midpoint of inhibition in assay [2], the IC50, lay at 8 µM. The “activity in Test C at 30 mg/kg” value in assay [3] is “active”.
With `CN(C)Cc1c(OCCN(C)Cc2ccccc2)ccc(Cl)c1Cl` [Example 13, 2-[2-(N-Benzyl-N-methylamino)ethoxy]-5,6-dichloro-N,N-dimethylbenzylamine], the inhibition at 100 mg/kg in assay [1] is 70%. Also, in assay [2], 8 µM corresponded to half-maximal inhibition (IC50). In addition, the “activity in Test C at 30 mg/kg” value in assay [3] was “active”.
As for `CN(C)Cc1ccccc1OCCN(C)Cc1ccc(Cl)cc1` [Example 17, 2-{2-[N-(4-Chlorobenzyl)-N-methylamino]ethoxy}-N,N-dimethylbenzylamine], 100 mg/kg produced 36% inhibition in assay [1]. Moreover, in assay [2], the IC50 was found to be 13 µM. Moreover, the “activity in Test C at 10 mg/kg or less” value in assay [3] is on record as “active”.
In the case of `CN(C)Cc1ccccc1OCCN(C)Cc1ccccc1` [Example 20, 2-[2-(N-Benzyl-N-methylamino)ethoxy]-N,N-dimethylbenzylamine], the inhibition at 100 mg/kg in assay [1] is 64%. Further, the IC50 in assay [2] was 36 µM. The “activity in Test C at 30 mg/kg” value in assay [3] is “active”.
For the molecule `CN(C)Cc1cc(Cl)ccc1OCCN(C)Cc1ccccc1` [Example 21, 2-[2-(N-Benzyl-N-methylamino)ethoxy]-5-chloro-N,N-dimethylbenzylamine], testing at 100 mg/kg in assay [1] gave an inhibition of 31%. The molecule also came in with a half-inhibitory concentration (IC50) in assay [2] of 22 µM. For the same molecule, in assay [3], the “activity in Test C at 10 mg/kg or less” value is listed as “active”.
In the case of `CN(C)CCOc1ccc(Cl)cc1CN(C)C` [Example 22, 5-Chloro-2-(2-dimethylaminoethoxy)-N,N-dimethylbenzylamine], in assay [1], testing at 100 mg/kg gave an inhibition of 26%. In assay [2], this molecule registered an IC50 of 14 µM. The “activity in Test C at 30 mg/kg” value in assay [3] is recorded as “active”.
